Measurements as given in patent publication EP4592286A1, “MACROCYCLIC NITROGEN-CONTAINING CROWN ETHER COMPOUND AND USE THEREOF AS PROTEIN KINASE INHIBITOR” (Artivila Biopharma, priority 2022, dated 2024).

Legend:
Format in all cases: biochemical
[1] = target: T1, LRRK2 (Homo sapiens, UniProt Q5S007); experiment: experiment of inhibiting LRRK2 kinase activity (ADP-Glo method); conditions: Table 4
Experimental: The inhibitory effect of the compounds on the activity of LRRK2 kinase was detected by ADP-Glo method. The diluted solutions of the compounds were transfered to a 384-well plate (784075, Greiner), the plate was sealed and centrifuged at a speed of 1000 g for 1 minute. A kinase solution at 2-fold final concentration was prepared with 1×kinase buffer, 2.5 µl of the kinase solution with 2-fold final concentration was added to the wells, the plate was centrifuged at 1000 g for 30 seconds, and left at room temperature for 10 minutes. A mixed solution of ATP and kinase substrate at 2-fold final concentration was prepared with 1×kinase buffer, and 2.5 µL of mixed solution of ATP and substrate at 2-fold final concentration was added to start the reaction. The plate was centrifuged at 1000 g for 30 seconds, sealed and left at room temperature for 2 hours. 4 µL of ADP-Glo reagent was added and incubated at room temperature for 40 minutes; 8 µL kinase detection reagent was added and incubated at room temperature for another 40 minutes. The luminescence signal value was detected on Envision 2104 microplate reader. The conversion inhibition rate%=100-(compound signal value-positive control signal value)/(blank control signal value-positive control signal value)×100.
The IC50 was calculated with GraphPad 6.0 and the dose-responsive curve of the compounds was plotted as follows: y=Bottom+(Top-Bottom)/(1+10^((logic50-x)×hillslope)), where x was logarithm of inhibitor concentration; and y was % inhibition rate.

[2] = target: CDK7 (Homo sapiens, UniProt P50613); experiment: experiment of inhibiting kinase activity (Caliper mobility shift assay), CDK7; conditions: read-out: inhibition rate CDK7; for inhibition at 0.1 µM: at 100 nM; for inhibition at 0.01 µM: at 10 nM
CDK7, sequence (P50613 whole entry, species assumed): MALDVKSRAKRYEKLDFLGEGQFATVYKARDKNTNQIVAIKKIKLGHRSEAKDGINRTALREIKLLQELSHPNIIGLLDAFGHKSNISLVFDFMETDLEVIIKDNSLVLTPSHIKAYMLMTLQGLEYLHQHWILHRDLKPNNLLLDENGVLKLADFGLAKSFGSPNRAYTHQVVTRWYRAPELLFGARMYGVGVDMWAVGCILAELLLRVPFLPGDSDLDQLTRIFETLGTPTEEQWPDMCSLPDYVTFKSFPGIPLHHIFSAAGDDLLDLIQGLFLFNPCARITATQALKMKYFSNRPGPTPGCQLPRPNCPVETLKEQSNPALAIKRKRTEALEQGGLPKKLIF
CDK7, sequence (P51946 whole entry partner, species assumed): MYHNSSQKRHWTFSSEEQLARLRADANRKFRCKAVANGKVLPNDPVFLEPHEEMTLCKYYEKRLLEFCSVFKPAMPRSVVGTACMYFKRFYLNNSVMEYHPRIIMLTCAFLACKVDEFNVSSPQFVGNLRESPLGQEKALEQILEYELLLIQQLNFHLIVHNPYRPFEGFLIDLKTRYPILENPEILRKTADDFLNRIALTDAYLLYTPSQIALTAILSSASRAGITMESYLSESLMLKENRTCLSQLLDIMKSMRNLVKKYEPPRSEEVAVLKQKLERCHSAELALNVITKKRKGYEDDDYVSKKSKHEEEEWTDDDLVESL
CDK7, sequence (P51948 whole entry partner, species assumed): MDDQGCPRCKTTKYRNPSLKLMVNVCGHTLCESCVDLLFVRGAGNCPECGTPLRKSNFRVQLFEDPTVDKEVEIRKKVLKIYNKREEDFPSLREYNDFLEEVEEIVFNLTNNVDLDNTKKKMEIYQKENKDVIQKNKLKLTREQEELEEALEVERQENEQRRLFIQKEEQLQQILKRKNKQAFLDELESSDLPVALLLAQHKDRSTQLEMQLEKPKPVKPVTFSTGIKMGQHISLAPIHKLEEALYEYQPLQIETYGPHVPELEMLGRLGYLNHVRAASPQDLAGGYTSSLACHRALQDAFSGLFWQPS
In short: (§1)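 Read-out was Caliper mobility shift of substrate conversion, normalized to no-inhibitor and buffer-only wells, with IC50 from a variable-slope log(inhibitor) curve. Enzyme was exposed to compound (10-point 3-fold series from 10 µM, or single 10/100 nM) 10 min at room temperature before ATP/substrate addition.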

[3] = target: TYK2 (Homo sapiens, UniProt P29597); experiment: experiment of inhibiting kinase activity, TYK2; conditions: read-out: inhibition rate TYK2; for inhibition at 0.1 µM: at 100 nM
TYK2, sequence (P29597 whole entry): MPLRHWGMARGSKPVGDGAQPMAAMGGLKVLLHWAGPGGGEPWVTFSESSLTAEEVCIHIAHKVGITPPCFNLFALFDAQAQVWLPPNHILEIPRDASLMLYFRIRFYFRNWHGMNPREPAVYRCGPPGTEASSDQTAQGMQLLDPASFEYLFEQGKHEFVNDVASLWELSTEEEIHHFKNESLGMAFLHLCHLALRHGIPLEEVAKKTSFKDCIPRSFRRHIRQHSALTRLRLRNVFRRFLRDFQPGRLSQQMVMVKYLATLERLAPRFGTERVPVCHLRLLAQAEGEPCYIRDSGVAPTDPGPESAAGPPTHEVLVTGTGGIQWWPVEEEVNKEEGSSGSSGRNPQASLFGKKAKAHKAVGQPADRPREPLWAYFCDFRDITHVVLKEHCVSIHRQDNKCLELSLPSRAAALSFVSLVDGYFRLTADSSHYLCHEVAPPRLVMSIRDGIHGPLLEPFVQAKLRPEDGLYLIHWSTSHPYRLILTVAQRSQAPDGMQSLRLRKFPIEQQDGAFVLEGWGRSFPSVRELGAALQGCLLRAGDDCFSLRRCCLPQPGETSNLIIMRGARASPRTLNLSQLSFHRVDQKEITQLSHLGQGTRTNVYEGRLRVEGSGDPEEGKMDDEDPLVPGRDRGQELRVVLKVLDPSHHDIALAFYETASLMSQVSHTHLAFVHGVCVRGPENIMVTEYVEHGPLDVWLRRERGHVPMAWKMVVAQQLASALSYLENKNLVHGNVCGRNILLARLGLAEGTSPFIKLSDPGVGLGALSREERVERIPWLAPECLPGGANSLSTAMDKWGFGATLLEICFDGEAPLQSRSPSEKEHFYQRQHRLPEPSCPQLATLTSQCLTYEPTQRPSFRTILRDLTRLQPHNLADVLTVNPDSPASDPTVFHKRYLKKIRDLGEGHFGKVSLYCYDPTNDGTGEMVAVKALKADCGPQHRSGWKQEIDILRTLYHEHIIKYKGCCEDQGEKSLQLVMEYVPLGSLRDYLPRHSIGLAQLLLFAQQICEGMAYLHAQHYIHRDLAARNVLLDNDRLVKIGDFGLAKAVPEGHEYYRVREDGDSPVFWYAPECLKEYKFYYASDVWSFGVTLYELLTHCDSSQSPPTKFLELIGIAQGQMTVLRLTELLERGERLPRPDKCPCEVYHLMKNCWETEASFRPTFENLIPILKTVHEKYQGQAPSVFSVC
Experimental: (§2) The inhibition rates of tested compounds on JAK1, JAK2, JAK3, TYK2, CDK7, CDK9, EGFR (T790M) and LRRK2 kinases were measured. The test concentrations of the compounds were 10 nM and 100 nM, and the detection was performed by replicate wells. Alternatively, compounds were 3-fold serial diluted from 10 µM for 10 concentrations in replicate wells.

[4] = target: CDK9 (Homo sapiens, UniProt P50750); experiment: experiment of inhibiting kinase activity (Caliper mobility shift assay), CDK9; conditions: at 100 nM; read-out: inhibition rate CDK9
CDK9, sequence (P50750 whole entry): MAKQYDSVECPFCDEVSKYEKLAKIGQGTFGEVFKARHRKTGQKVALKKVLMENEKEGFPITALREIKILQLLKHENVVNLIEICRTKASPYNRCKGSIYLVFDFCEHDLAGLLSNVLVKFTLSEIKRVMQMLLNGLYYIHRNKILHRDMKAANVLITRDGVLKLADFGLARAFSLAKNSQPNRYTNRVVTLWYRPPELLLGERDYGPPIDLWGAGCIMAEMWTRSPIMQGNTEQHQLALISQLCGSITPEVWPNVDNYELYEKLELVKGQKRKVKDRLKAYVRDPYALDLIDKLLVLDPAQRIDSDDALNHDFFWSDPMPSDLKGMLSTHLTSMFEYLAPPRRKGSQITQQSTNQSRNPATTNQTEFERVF
CDK9, sequence (O60563 whole entry partner): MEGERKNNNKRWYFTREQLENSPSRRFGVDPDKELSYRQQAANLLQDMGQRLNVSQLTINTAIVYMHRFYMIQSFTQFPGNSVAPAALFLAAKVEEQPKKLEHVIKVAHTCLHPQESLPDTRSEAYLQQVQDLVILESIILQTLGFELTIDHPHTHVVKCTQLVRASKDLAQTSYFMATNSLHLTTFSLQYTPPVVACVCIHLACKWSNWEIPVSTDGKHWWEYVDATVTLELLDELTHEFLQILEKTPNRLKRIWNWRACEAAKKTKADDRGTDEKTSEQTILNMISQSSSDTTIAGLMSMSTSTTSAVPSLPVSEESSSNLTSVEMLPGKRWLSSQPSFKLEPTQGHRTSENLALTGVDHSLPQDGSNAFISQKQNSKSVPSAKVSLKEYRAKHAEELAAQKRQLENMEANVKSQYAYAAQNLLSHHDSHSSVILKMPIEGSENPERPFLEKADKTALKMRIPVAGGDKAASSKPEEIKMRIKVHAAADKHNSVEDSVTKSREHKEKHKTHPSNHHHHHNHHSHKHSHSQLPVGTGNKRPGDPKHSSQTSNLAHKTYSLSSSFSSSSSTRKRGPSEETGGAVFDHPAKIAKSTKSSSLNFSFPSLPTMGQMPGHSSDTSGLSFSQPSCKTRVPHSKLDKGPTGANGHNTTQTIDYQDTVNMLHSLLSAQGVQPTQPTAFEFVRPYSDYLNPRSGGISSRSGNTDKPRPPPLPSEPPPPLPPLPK
Experimental: as §2
The inhibitory effects of the compounds on JAK1, JAK2, JAK3, CDK7 and CDK9 kinases were detected by the method of Caliper mobility shift assay. 250 nL of the compound at 100-fold final concentration was transferred to a destination plate 384-well-plate by using a liquid handler Echo 550. A kinase solution at 2.5-fold final concentration was prepared with 1×kinase buffer. 10 µL of the kinase solution with 2.5-fold final concentration was added to compound wells and positive control wells; and 10 µL of 1×kinase buffer was added to negative control wells. The mixture was centrifuged at 1000 rpm for 30 seconds and then incubated at room temperature for 10 minutes. A mixed solution of ATP and kinase substrate at 5/3-fold final concentration was prepared with 1×kinase buffer, and 15 µL of the mixed solution of ATP and substrate at 5/3-fold final concentration was added to start the reaction. The 384-well plate was centrifuged at 1000 rpm for 30 seconds, shaked and mixed evenly, then incubated at room temperature for a corresponding time. 30 µL of stop solution was added to stop the kinase reaction, the mixture was centrifuged at 1000 rpm for 30 seconds, and shaked and mixed evenly. The conversion rate was read by Caliper EZ Reader. The conversion inhibition rate%=(average positive control conversion rate%-sample conversion rate%)/(average positive control conversion rate%-average negative control conversion rate%). Where negative control wells represent the conversion readings of the background well of kinase buffer; and positive control wells represent the conversion readings of wells without compound inhibition. With the log value of concentration as the x axis and the percentage inhibition rate as the y axis, the dose-response curve was fitted by the log (inhibitor) vs. response-variable slope of the analyzing softwar GraphPad Prism 5, and the IC50 values of each compound on enzyme activity were obtained. Calculation formula is as follows: y=Bottom+(Top-Bottom)/(1+10^((LogIC50-x)×hillslope)), where x is logarithm of inhibitor concentration; and Y is % inhibition rate.

[5] = target: JAK1 (Homo sapiens, UniProt P23458); experiment: experiment of inhibiting kinase activity (Caliper mobility shift assay), JAK1; conditions: read-out: inhibition rate JAK1; for inhibition at 0.1 µM: at 100 nM
In short: as §1

[6] = target: T2, JAK3 (Homo sapiens, UniProt P52333); experiment: experiment of inhibiting kinase activity (Caliper mobility shift assay), JAK3; conditions: read-out: inhibition rate JAK3; for inhibition at 0.01 µM: at 10 nM; for inhibition at 0.1 µM: at 100 nM
T2 sequence (P52333 1-1124): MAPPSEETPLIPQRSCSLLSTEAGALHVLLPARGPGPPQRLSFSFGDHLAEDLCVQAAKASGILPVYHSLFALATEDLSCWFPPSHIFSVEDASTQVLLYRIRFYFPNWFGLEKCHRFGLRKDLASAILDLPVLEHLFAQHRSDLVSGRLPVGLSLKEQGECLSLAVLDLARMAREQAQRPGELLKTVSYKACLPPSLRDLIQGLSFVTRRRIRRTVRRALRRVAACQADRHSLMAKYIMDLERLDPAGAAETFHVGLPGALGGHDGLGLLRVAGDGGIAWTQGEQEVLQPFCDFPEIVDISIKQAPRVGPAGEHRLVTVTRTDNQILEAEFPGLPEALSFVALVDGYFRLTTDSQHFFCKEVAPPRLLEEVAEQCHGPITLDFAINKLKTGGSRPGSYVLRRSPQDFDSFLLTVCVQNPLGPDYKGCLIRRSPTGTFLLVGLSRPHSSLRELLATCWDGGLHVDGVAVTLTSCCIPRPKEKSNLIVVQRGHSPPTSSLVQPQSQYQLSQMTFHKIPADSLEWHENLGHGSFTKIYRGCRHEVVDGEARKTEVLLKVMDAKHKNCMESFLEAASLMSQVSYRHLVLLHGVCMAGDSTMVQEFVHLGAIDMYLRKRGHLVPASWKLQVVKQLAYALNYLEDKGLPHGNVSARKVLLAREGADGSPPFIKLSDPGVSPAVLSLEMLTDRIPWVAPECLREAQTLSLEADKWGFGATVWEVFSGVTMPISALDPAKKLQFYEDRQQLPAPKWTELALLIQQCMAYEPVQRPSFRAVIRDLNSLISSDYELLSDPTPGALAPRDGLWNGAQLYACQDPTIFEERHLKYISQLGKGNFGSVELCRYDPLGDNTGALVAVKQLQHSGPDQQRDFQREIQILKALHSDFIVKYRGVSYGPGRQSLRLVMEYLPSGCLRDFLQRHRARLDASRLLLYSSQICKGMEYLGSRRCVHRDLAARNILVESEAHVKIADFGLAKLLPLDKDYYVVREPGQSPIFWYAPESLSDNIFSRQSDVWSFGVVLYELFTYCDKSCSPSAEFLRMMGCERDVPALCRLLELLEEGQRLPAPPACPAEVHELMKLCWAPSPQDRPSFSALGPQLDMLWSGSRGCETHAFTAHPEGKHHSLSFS
In short: as §1

[7] = target: T1, LRRK2; experiment: experiment of inhibiting kinase activity, LRRK2; conditions: for inhibition at 0.1 µM: at 100 nM
Experimental: as §2

[8] = target: JAK2 (Homo sapiens, UniProt O60674); experiment: experiment of inhibiting kinase activity (Caliper mobility shift assay), JAK2; conditions: read-out: inhibition rate JAK2; for inhibition at 0.01 µM: at 10 nM; for inhibition at 0.1 µM: at 100 nM
JAK2, sequence (O60674 whole entry): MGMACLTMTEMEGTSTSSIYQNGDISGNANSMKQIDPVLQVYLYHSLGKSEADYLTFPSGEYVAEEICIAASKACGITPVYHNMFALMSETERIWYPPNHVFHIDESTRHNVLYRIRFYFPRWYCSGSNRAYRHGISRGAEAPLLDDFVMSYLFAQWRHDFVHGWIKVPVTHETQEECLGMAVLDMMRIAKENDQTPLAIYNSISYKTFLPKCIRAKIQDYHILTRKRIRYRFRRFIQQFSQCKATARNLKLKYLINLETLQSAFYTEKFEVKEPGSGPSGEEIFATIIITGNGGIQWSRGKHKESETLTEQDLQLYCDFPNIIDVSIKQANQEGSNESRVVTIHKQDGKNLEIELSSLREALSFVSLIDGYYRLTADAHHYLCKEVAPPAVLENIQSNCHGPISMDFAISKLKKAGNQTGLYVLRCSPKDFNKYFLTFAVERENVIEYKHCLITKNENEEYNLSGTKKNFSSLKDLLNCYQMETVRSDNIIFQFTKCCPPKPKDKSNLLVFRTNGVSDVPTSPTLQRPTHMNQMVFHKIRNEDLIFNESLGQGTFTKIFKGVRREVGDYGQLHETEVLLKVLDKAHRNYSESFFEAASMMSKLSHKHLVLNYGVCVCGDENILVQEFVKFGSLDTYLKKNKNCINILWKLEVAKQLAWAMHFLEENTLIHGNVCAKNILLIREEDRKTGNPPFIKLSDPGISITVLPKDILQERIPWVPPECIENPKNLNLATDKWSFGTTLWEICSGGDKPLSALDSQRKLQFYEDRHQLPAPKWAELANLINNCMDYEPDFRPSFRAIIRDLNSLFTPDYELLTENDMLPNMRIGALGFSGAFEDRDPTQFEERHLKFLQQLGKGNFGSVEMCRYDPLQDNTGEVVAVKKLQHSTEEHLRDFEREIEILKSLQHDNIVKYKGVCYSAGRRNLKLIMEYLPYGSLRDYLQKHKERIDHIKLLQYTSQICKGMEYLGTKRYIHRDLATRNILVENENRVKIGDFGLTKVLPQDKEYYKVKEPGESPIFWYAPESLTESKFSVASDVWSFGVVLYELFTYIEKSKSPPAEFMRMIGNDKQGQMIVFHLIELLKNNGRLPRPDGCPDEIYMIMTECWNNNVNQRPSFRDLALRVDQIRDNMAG
In short: as §1

[9] = read-out: inhibition rate LRRK2

IC50 [1] [nM]	inhibition at 0.1 µM [2] [%]	inhibition at 0.1 µM [3] [%]	inhibition at 0.1 µM [4] [%]	inhibition at 0.1 µM [5] [%]	inhibition at 0.01 µM [6] [%]	inhibition at 0.1 µM [6] [%]	inhibition at 0.1 µM [7, 9] [%]	inhibition at 0.01 µM [8] [%]	inhibition at 0.1 µM [8] [%]	Compound	further results
< 100	–	–	–	–	–	–	–	–	–	CN1CCOCCOc2ccc(Nc3ncc(Cl)c(O[C@H]4CC[C@@](C)(O)CC4)n3)cc2OCC1 [Example 104, (1s,4s)-4-((5-chloro-2-((7-methyl-2,3,6,7,8,9-hexahydro-5H-benzo[b][1,4,7]trioxa[10]azacyclododecan-12-yl)amino)pyrimidin-4-yl)oxy)-1-methylcyclohexan-1-ol]	–
< 100	–	–	–	–	–	–	–	–	–	Cc1cnc(Nc2ccc3c(c2)OCCN(C)CCOCCO3)nc1O[C@H]1CC[C@@](C)(O)CC1 [Example 105, (1s,4s)-1-methyl-4-((5-methyl-2-((7-methyl-2,3,6,7,8,9-hexahydro-5H-benzo[b][1,4, 7]trioxa[10]azacyclododecan-12-yl)amino)pyrimidin-4-yl)oxy)cyclohexan-1-ol]	–
< 100	–	–	–	–	–	–	–	–	–	CN1CCOCCOc2ccc(Nc3nc(O[C@H]4CC[C@](C)(O)CC4)c4cc[nH]c4n3)cc2OCC1 [Example 87, (1r,4r)-1-methyl-4-((2-((7-methyl-2,3,6,7,8,9-hexahydro-5H-benzo[b][1,4,7]trioxa [10]azacyclododecan-12-yl)amino)-7H-pyrrolo[2,3-d]pyrimidin-4-yl)oxy)cyclohexan-1-ol]	–

More lines, now with the values behind:

Compound	IC50 [1] [nM]	inhibition at 0.1 µM [2] [%]	inhibition at 0.1 µM [3] [%]	inhibition at 0.1 µM [4] [%]	inhibition at 0.1 µM [5] [%]	inhibition at 0.01 µM [6] [%]	inhibition at 0.1 µM [6] [%]	inhibition at 0.1 µM [7, 9] [%]	inhibition at 0.01 µM [8] [%]	inhibition at 0.1 µM [8] [%]	further results
CN1CCOCCOc2ccc(Nc3nc(O[C@H]4CC[C@@](C)(O)CC4)c4ccccc4n3)cc2OCC1 [Example 109, (1s,4s)-1-methyl-4-((2-((7-methyl-2,3,6,7,8,9-hexahydro-5H-benzo[b][1,4,7]trioxa[1 0]azacyclododecan-12-yl)amino)quinazolin-4-yl)oxy)cyclohexan-1-ol]	100 to 500	–	–	–	–	–	–	–	–	–	–
CN1CCOCCOc2cc(Nc3ncc(F)c(Nc4ccc5[nH]ccc5c4)n3)ccc2OCC1 [Example 30, 5-fluoro-N^4-(1H-indol-5-yl)-N^2-(7-methyl-2,3,6,7,8,9-hexahydro-5H-benzo[b][1,4,7]trioxa[10]azacyclododecan-13-yl)pyrimidin-2,4-diamine]	–	40 to 79	40 to 79	40 to 79	25 to 39	25 to 39	> 80	25 to 39	40 to 79	> 80	–
CC(C)S(=O)(=O)c1ccccc1Nc1nc(Nc2ccc3c(c2)OCCOCCN(S(C)(=O)=O)CCO3)nc2[nH]ccc12 [Example 99, N^4-(2-(isopropylsulfonyl)phenyl)-N^2-(7-(methylsulfonyl)-2,3,6,7,8,9-hexahydro-5H-benzo[b][1,4,7]trioxa[10]azacyclododecan-13-yl)-7H-pyrrolo[2,3-d]pyrimidin-2,4-diamine]	–	> 80	> 80	25 to 39	40 to 79	40 to 79	> 80	> 80	40 to 79	> 80	inhibition at 0.01 µM [2]: 40 to 79%; inhibition at 0.01 µM ([3]; at 10 nM): 25 to 39%; inhibition at 0.01 µM ([5]; at 10 nM): 25 to 39%
CC(C)S(=O)(=O)c1ccccc1Nc1nc(Nc2ccc3c(c2)OCCOCCN(C)CCO3)nc2[nH]ccc12 [Example 10, N^4-(2-(isopropylsulfonyl)phenyl)-N^2-(7-methyl-2,3,6,7,8,9-hexahydro-5H-benzo[b][1,4, 7]trioxa[10]azacyclododecan-13-yl)-7H-pyrrolo[2,3-d]pyrimidin-2,4-diamine]	–	> 80	> 80	40 to 79	25 to 39	40 to 79	> 80	> 80	> 80	> 80	inhibition at 0.01 µM [2]: 40 to 79%; inhibition at 0.01 µM ([7]; at 10 nM, read-out: inhibition rate LRRK2): > 80%; IC50 ([7]; kinase activity assay, Table 3): < 50 nM
CNc1cc(O[C@H]2CC[C@@](C)(O)CC2)nc(Nc2ccc3c(c2)OCCN(C)CCO3)n1 [Example 108, (1s,4s)-1-methyl-4-((2-((4-methyl-3,4,5,6-tetrahydro-2H-benzo[b][1,4,7]dioxazolin-9-yl)amino)-6-(methylamino)pyrimidin-4-yl)oxy)cyclohexan-1-ol]	500 to 1000	–	–	–	–	–	–	–	–	–	–
